Reference: US20210130406A1, “PEPTIDE, COMPOSITION, AND METHOD FOR TREATING, PREVENTING, OR AMELIORATING MOOD DISORDER” (KYOTO UNIVERSITY, priority 2018, published 2021)

What was measured:
ddy mouse [1] = assay: Tail suspension test (motivation-improving effect), oral peptide; format: in vivo; settings: 30 minutes after administration, vs saline control
Protocol: (§1) Each prepared peptide was administered to a mouse (ddy mouse (5-week-old male, body weight 24 g-28 g)) in each of the following tests, and then the motivation-improving effect was evaluated by a tail suspension test.
(§2) Each mouse was suspended by the tail and hung 30 cm above the floor, 30 minutes after peptide administration. Subsequently, over a period of 6 minutes from the start of the test (0 minute), the time (immobility time) during which the mouse was in an immobility state after initiating escape behavior was measured. The immobility state is known as a “despair state”, and it can be evaluated that the shorter the immobility time, the better the despair state and the greater the motivation. Therefore, substances that provide a motivation-improving effect in this test can be effective in treating, preventing, or ameliorating mood disorders.
(§3) The amino acid sequence represented by SEQ ID NO: 2 was dissolved in physiological saline and orally administered to each mouse in an amount of 0.03, 0.1, or 0.3 mg/kg per body weight (n=5 to 6). As a control, mice were prepared by orally administering physiological saline alone (n=6). Each mouse was subjected to a tail suspension test, and the motivation-improving effect resulting from the peptide of the present invention was evaluated.
as §3, with “Each of the” for “The”, “sequences” for “sequence”, “NOS: 1 to 3” for “NO: 2”, “mice” for “each mouse”, “0.1” for “0.03, 0.1, or 0.3”, “alone to the mice” for “alone”

ddy mouse [2] = assay: Tail suspension test, peptide combined with receptor antagonists; format: in vivo; settings: Test 3, FIG. 3
Protocol: as §1, §2
Mice were prepared by orally administering the amino acid sequence represented by SEQ ID NO: 2 in an amount of 0.3 mg/kg and various receptor antagonists in combination thereto (n=5 to 6). Each mouse was subjected to a tail suspension test, and the motivation-improving effect resulting from the peptide of the present invention was evaluated.
(1) SCH23390: dopamine D1 receptor antagonist, and the amount used: 30 μg/kg (2) WAY100135: serotonin 5-HT1A receptor antagonist, and the amount used: 10 mg/kg (3) Bicuculline: GABA-A receptor antagonist, and the amount used: 30 mg/kg

[3] = Test 2, FIG. 2, oral 0.1 mg/kg in physiological saline

| Substance | immobility time (ddy mouse [1]; [3]) | immobility time (ddy mouse [1]; Test 1, FIG. 1, oral 0.03, 0.1 or 0.3 mg/kg in physiological saline, 6 minutes test, tendency depended on concentration) | immobility time (ddy mouse [2]; oral 0.3 mg/kg combined with Bicuculline (GABA-A receptor antagonist) 30 mg/kg) | immobility time (ddy mouse [2]; oral 0.3 mg/kg combined with SCH23390 (dopamine D1 receptor antagonist) 30 μg/kg) | immobility time (ddy mouse [2]; oral 0.3 mg/kg combined with WAY100135 (serotonin 5-HT1A receptor antagonist) 10 mg/kg) |
| --- | --- | --- | --- | --- | --- |
| QQFLPEG [SEQ ID NO: 3] | not observed to have any decrease in immobility time |  |  |  |  |
| QQFLPEGQSQSQK [SEQ ID NO: 2] | shorter immobility time than the control | shorter than that of the control | relatively decreased the immobility time | significantly increased immobility time | relatively decreased the immobility time |
| QSQSQK [SEQ ID NO: 1] | shorter immobility time than the control |  |  |  |  |
